Test results reported in paper PMC4457528, “Identification of Novel Small Molecule Inhibitors of Oncogenic RET Kinase” (PLoS ONE, 2015).
Read-outs that look alike come from different tables or passages of the source.

Legend:
Experiment in all cases: KinomeScan kinase panel, single concentration 10 µM
Format in all cases: binding
KinomeScan kinase panel [1] = biological target: T1, KinomeScan kinase panel (Homo sapiens, UniProt P00533, L861Q); details: EGFR(L861Q), 10 µM
T1 construct: purchased DiscoveRx (KinomeScan)
T1 sequence (P00533 25-1210 L861Q): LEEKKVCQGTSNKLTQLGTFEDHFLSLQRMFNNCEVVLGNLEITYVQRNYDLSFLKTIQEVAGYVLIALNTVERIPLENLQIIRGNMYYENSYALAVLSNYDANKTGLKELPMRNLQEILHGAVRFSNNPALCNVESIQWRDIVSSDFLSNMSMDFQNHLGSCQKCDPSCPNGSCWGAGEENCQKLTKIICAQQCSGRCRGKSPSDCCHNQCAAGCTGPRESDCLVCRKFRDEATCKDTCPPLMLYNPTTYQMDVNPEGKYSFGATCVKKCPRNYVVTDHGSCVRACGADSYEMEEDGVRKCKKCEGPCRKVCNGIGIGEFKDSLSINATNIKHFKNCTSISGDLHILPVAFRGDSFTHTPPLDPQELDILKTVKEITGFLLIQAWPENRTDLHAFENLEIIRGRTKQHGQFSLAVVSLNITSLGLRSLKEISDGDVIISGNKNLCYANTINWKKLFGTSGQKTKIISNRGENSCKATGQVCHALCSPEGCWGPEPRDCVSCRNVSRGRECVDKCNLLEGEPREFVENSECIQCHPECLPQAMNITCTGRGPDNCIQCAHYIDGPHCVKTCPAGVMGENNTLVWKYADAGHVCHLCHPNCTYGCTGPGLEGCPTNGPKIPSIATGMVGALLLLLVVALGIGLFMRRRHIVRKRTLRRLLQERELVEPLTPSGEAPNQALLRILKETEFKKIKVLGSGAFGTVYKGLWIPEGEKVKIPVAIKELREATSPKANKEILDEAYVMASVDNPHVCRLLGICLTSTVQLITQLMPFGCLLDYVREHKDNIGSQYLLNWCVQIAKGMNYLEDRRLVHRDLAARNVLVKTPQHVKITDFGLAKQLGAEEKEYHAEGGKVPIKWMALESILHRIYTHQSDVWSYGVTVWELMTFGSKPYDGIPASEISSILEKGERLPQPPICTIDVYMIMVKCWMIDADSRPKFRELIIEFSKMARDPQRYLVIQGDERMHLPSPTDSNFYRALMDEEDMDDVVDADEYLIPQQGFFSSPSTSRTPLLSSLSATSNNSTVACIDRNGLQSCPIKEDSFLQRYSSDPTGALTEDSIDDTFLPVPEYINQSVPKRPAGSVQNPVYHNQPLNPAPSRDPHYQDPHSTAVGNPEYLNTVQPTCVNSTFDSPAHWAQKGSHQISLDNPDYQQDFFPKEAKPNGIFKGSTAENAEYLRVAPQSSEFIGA

KinomeScan kinase panel [2] = biological target: T2, KinomeScan kinase panel (Homo sapiens, UniProt P0C1S8); details: kinase WEE2; 10 µM; read-out: score (%)
T2 construct: purchased DiscoveRx (KinomeScan)
T2 sequence (P0C1S8 whole entry): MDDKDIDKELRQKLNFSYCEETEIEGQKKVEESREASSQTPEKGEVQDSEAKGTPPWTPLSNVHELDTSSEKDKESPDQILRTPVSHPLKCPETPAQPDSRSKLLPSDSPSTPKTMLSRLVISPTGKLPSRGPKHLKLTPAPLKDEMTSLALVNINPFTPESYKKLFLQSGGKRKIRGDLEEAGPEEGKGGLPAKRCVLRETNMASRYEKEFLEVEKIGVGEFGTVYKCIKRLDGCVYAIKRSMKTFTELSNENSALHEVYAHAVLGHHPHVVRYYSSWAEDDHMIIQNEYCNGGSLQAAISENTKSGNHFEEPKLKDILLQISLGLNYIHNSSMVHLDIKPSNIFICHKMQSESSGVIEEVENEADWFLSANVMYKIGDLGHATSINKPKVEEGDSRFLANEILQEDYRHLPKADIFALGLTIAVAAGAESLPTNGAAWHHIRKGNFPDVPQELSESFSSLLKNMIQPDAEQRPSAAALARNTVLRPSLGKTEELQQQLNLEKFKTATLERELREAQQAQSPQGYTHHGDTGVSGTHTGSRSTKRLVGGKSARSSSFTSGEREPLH

KinomeScan kinase panel [3] = biological target: T3, KinomeScan kinase panel (Homo sapiens, UniProt P16591); details: FER, 10 µM; read-out: score (%)
T3 construct: purchased DiscoveRx (KinomeScan)

KinomeScan kinase panel [4] = biological target: T4, KinomeScan kinase panel (Homo sapiens, UniProt P22607, G697C); details: FGFR3(G697C), 10 µM; read-out: score (%)
T4 construct: purchased DiscoveRx (KinomeScan)
T4 sequence (P22607 23-806 G697C): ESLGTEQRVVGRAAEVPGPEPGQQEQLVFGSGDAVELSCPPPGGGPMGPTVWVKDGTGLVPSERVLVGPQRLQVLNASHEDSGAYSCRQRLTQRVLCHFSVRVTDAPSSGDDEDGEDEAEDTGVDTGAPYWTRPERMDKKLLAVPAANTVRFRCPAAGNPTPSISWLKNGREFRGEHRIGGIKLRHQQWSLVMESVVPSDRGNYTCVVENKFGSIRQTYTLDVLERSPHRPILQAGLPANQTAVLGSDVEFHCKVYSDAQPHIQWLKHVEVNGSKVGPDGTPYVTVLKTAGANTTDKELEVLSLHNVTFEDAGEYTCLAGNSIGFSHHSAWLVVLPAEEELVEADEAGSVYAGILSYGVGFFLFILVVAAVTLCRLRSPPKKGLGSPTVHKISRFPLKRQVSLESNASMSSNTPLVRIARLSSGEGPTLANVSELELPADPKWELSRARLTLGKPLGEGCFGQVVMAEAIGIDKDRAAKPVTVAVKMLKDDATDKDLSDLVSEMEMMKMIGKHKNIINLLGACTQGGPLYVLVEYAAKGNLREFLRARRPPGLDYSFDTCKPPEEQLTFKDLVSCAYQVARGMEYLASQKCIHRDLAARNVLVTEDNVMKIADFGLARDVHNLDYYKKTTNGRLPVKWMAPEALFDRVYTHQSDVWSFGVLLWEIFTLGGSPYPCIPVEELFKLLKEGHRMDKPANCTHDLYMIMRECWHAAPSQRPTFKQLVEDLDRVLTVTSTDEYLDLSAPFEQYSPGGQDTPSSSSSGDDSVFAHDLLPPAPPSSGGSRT

KinomeScan kinase panel [5] = biological target: T5, KinomeScan kinase panel (Homo sapiens, UniProt P42336, E545K); details: PIK3CA(E545K), 10 µM; read-out: score (%)
T5 construct: purchased DiscoveRx (KinomeScan)

KinomeScan kinase panel [6] = biological target: T6, KinomeScan kinase panel (Homo sapiens, UniProt P51451); details: BLK, 10 µM; read-out: score (%)
T6 construct: purchased DiscoveRx (KinomeScan)
T6 sequence (P51451 whole entry): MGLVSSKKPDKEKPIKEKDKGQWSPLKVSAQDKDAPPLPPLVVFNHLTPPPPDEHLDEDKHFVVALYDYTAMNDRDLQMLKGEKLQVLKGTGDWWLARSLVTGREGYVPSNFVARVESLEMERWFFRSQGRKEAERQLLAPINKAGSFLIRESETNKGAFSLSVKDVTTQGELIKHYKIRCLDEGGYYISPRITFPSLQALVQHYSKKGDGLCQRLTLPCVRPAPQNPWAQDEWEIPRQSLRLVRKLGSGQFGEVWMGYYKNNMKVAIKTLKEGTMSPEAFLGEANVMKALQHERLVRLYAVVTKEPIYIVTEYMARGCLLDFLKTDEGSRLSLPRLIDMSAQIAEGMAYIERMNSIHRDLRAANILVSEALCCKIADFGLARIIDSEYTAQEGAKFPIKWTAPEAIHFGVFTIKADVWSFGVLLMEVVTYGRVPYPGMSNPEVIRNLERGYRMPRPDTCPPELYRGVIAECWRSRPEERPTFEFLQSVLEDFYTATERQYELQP

KinomeScan kinase panel [7] = biological target: T7, KinomeScan kinase panel (Homo sapiens, UniProt P78362); details: read-out: score (%)
T7 construct: purchased DiscoveRx (KinomeScan)

KinomeScan kinase panel [8] = biological target: T8, KinomeScan kinase panel (Homo sapiens, UniProt Q00526); details: CDK3, 10 µM
T8 construct: purchased DiscoveRx (KinomeScan)
T8 sequence (Q00526 whole entry): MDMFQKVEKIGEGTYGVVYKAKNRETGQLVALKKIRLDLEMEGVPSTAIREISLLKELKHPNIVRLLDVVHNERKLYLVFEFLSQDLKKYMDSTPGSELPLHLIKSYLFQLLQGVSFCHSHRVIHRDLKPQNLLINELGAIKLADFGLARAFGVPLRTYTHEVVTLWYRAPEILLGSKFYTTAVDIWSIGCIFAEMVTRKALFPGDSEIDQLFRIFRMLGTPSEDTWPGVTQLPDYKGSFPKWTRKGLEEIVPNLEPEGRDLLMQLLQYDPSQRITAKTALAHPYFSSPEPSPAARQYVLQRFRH

KinomeScan kinase panel [9] = biological target: T9, KinomeScan kinase panel (Homo sapiens, UniProt Q08881); details: ITK, 10 µM
T9 construct: purchased DiscoveRx (KinomeScan)
T9 sequence (Q08881 1-620): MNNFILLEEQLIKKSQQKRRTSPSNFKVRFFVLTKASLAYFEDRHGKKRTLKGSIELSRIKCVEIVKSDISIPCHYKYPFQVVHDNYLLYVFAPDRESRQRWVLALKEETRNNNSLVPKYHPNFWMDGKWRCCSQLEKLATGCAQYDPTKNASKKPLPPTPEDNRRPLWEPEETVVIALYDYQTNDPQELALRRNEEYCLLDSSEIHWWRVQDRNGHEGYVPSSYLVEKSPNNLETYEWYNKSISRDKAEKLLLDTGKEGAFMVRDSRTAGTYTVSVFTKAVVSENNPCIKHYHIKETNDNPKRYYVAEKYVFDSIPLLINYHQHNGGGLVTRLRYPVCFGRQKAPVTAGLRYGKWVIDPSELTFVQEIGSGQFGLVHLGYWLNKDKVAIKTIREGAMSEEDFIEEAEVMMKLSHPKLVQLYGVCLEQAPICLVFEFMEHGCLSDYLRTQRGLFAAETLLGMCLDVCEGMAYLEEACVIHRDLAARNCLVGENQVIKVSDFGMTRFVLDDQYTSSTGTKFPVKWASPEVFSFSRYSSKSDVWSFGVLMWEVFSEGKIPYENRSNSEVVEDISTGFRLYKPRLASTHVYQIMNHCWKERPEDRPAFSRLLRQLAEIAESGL

KinomeScan kinase panel [10] = biological target: T10, KinomeScan kinase panel (Homo sapiens, UniProt Q13131); details: AMPK-alpha1, 10 µM; read-out: score (%)
T10 construct: purchased DiscoveRx (KinomeScan)
T10 sequence (Q13131 whole entry): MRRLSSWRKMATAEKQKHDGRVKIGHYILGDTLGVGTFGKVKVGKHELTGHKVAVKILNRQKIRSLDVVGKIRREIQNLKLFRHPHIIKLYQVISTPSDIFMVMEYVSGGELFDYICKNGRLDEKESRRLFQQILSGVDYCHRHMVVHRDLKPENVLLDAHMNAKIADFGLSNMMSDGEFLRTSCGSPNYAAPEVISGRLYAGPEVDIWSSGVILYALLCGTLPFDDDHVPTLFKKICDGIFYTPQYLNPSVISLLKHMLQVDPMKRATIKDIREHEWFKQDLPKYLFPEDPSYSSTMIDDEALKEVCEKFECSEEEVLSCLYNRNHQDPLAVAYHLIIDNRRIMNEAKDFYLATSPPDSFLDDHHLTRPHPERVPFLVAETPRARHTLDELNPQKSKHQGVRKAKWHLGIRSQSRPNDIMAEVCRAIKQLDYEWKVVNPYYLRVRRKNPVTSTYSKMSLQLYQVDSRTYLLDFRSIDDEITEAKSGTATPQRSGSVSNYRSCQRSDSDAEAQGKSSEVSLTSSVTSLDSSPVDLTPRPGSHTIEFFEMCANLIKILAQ

KinomeScan kinase panel [11] = biological target: T11, KinomeScan kinase panel (Homo sapiens, UniProt Q15139); details: read-out: score (%)
T11 construct: purchased DiscoveRx (KinomeScan)
T11 sequence (Q15139 1-912): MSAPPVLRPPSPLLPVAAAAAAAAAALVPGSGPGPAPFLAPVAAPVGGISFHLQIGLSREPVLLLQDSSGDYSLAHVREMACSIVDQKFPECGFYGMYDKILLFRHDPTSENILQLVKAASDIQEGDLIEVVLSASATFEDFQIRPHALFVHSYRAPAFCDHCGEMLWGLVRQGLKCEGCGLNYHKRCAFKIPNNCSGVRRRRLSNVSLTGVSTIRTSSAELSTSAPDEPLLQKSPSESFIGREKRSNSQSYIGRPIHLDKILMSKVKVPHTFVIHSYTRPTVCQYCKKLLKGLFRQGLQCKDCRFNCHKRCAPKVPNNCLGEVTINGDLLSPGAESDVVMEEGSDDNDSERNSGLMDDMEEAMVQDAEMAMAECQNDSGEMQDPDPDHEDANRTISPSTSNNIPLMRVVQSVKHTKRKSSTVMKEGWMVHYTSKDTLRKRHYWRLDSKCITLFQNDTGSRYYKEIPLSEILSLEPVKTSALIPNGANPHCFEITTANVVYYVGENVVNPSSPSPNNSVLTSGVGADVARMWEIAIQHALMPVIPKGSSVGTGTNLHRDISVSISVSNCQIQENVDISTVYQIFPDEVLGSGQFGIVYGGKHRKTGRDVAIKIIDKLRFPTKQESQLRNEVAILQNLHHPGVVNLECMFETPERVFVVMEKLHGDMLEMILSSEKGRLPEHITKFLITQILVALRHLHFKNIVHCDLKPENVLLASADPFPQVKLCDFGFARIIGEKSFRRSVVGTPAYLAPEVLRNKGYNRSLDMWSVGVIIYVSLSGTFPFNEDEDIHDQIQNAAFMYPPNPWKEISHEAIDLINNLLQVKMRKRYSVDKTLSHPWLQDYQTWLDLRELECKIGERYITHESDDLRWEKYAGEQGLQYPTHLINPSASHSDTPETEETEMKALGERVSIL

KinomeScan kinase panel [12] = biological target: T12, KinomeScan kinase panel (Homo sapiens, UniProt Q15349); details: 10 µM, read-out: score (%)
T12 construct: purchased DiscoveRx (KinomeScan)

KinomeScan kinase panel [13] = biological target: T13, KinomeScan kinase panel (Homo sapiens, UniProt Q8N752); details: CSNK1A1L, 10 µM; read-out: score (%)
T13 construct: purchased DiscoveRx (KinomeScan)
T13 sequence (Q8N752 1-337): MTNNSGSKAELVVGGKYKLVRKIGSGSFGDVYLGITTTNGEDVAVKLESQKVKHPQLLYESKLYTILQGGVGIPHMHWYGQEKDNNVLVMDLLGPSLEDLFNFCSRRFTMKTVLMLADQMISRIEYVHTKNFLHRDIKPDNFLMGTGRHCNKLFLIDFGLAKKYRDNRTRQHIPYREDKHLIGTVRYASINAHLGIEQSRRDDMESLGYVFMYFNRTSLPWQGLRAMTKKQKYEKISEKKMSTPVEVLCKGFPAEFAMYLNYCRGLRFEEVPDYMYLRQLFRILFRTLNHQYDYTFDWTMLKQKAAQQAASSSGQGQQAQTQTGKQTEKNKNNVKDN

KinomeScan kinase panel [14] = biological target: T14, KinomeScan kinase panel (Homo sapiens, UniProt Q9HAZ1); details: CLK4, 10 µM; read-out: score (%)
T14 construct: purchased DiscoveRx (KinomeScan)
T14 sequence (Q9HAZ1 whole entry): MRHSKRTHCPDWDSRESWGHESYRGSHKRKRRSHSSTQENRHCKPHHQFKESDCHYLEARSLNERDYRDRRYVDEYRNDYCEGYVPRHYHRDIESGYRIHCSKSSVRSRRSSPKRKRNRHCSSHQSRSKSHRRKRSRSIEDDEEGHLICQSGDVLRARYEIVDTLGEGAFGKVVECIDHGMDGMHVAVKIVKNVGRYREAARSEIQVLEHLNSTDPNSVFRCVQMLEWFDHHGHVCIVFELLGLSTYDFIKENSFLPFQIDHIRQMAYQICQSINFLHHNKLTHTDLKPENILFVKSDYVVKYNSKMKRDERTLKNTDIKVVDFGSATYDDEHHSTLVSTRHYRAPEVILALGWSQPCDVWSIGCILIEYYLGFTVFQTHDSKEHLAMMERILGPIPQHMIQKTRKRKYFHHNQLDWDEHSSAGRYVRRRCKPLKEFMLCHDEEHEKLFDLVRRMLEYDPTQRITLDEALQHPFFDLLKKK

Row | SMILES | score (%) (KinomeScan kinase panel [1]) | remaining binding at 10 µM (KinomeScan kinase panel [2]) [%] | remaining binding at 10 µM (KinomeScan kinase panel [3]) [%] | remaining binding at 10 µM (KinomeScan kinase panel [4]) [%] | remaining binding at 10 µM (KinomeScan kinase panel [5]) [%] | remaining binding at 10 µM (KinomeScan kinase panel [6]) [%] | remaining binding at 10 µM (KinomeScan kinase panel [7]; kinase SRPK2, 10 µM) [%] | score (%) (KinomeScan kinase panel [8]) | score (%) (KinomeScan kinase panel [9]) | remaining binding at 10 µM (KinomeScan kinase panel [10]) [%] | remaining binding at 10 µM (KinomeScan kinase panel [11]; PRKD1, 10 µM) [%] | remaining binding at 10 µM (KinomeScan kinase panel [13]) [%] | remaining binding at 10 µM (KinomeScan kinase panel [14]) [%] | further results
1 | CCN1CCN(Cc2ccc(NC(=O)c3ccc(C)c(NC(=O)c4cncc(-c5cccs5)c4)c3)cc2C(F)(F)F)CC1 [ALW-II-41-27] | 0 | > 30 | 5.6 | > 30 | > 30 | 0.1 | > 30 | nb (Hits values higher than 30% were considered negative (no binding: nb)) | 8.6% | > 30 | > 30 | > 30 | 5.3 | remaining binding at 10 µM (KinomeScan kinase panel [12]; kinase RPS6KA2(Kin.Dom.1-N-terminal)): > 30%; remaining binding at 10 µM (KinomeScan kinase panel [12]; kinase RPS6KA2(Kin.Dom.2-C-terminal)): > 30%
2 | CCN1CCN(Cc2ccc(NC(=O)c3ccc(C)c(C#Cc4cccnc4)c3)cc2C(F)(F)F)CC1 [XMD15-44] | 0.2 | 100 | 11 | 0.05 | 85 | 0 | 81 | 24% | nb (Hits values higher than 30% were considered negative (no binding: nb)) | 1.2 |  | > 30 | 15 | remaining binding at 10 µM (KinomeScan kinase panel [11]; kinase PRKD1, 10 µM): 51%; remaining binding at 10 µM (KinomeScan kinase panel [12]; kinase RSK3(Kin.Dom.1-N-terminal)): 9.5%; remaining binding at 10 µM (KinomeScan kinase panel [12]; kinase RSK3(Kin.Dom.2-C-terminal)): 30%
3 | CCN1CCN(Cc2ccc(NC(=O)c3ccc(C)c(/C=C/c4cnc5[nH]ccc5c4Cl)c3)cc2C(F)(F)F)CC1 [HG-6-63-01, (E)-3-(2-(4-chloro-1H-pyrrolo[2,3-b]pyridin-5-yl)vinyl)-N-(4-((4-ethylpiperazin-1-yl)methyl)-3-(trifluoromethyl)phenyl)-4-methylbenzamide] | 0 | 15 | 14 | 2.4 | > 30 | 0.2 |  | nb (Hits values higher than 30% were considered negative (no binding: nb)) | 21% | 18 | > 30 | > 30 | > 30 | remaining binding at 10 µM (KinomeScan kinase panel [7]; SRPK2, 10 µM): 28%; remaining binding at 10 µM (KinomeScan kinase panel [12]; RPS6KA2(Kin.Dom.1)): 7.4%; remaining binding at 10 µM (KinomeScan kinase panel [12]; RPS6KA2(Kin.Dom.2)): > 30%
